Reference: patent US20230031406A1, “COMPOUNDS AND COMPOSITIONS FOR TREATING CONDITIONS ASSOCIATED WITH NLRP ACTIVITY” (Novartis AG, priority 2018, published 2023)
Where two headings read alike, the source gives them in different places. Blank lines part the entries; values can stand above or below the compound they belong to.

Test system: PMA-differentiated THP-1 cells
Assay: IL-1β production in PMA-differentiated THP-1 cells stimulated with gramicidin (hTHP-1 assay containing 2% fetal bovine serum; Procedures 1 and 2)
Type: cell-based, human
Details: 2% fetal bovine serum
In short: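 PMA 20 ng/ml 16-18 h → trypsinise → 50,000 cells/well, RPMI/2% FBS; cpd 1 h (11-pt, 100–0.0017 μM; DMSO 0.37%); gramicidin 5 μM, 2 h; spin; supernatant IL-1β via HTRF.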

[1] = Homo sapiens, THP-1, Table B4, class symbols, read-out: hTHP-1 IC50
[2] = Table B2, class symbols, read-out: hTHP-1 IC50
[3] = Homo sapiens, THP-1, Table B1, class symbols, read-out: Average IC50 of compounds in hTHP-1 assay: hTHP-1 IC50
[4] = Homo sapiens, THP-1, Table B2, class symbols, read-out: hTHP-1 IC50
[5] = Table B3, hTHP-1 assay, class symbols, read-out: IC50

SMILES: CCC1CCc2c1nc1c(c2NC(=O)N=S(N)(=O)c2ccn(C(F)F)n2)CCC1 (single isomer, unassigned) [Compound 668d, (S, R) or (S, S) or (R, S) or (R, R)-1-(Difluoromethyl)-N′-((3-ethyl-1,2,3,5,6,7-hexahydrodicyclopenta [b,e]pyridin-8-yl)carbamoyl)-1H-pyrazole-3-sulfonimidamide]
IC50 (Table B2, numeric bounds, read-out: hTHP-1 IC50): > 30000 nM

SMILES: Cc1c(C(F)(F)F)nc2c(c1NC(=O)N=S(N)(=O)c1cc(C(C)(C)O)cs1)CCC2 (single isomer, unassigned) [Compound 624b, (R) or (S)-4-(2-Hydroxypropan-2-yl)-N′-((3-methyl-2-(trifluoromethyl)-6,7-dihydro-5H-cyclopenta[b]pyridin-4-yl)carbamoyl) thiophene-2-sulfonimidamide]
IC50 [2]: 40 to 200 nM

SMILES: CC(C)(O)c1ncc(S(=N)(=O)NC(=O)Nc2c3c(nc4c2CCC4)CCC3)s1 (stereo not shown) [Compound 128, N-((1,2,3,5,6,7-hexahydrodicyclopenta[b,e]pyridin-8-yl)carbamoyl)-2-(2-hydroxypropan-2-yl)thiazole-5-sulfonimidamide]
IC50 [3]: 200 to 1000 nM

SMILES: C[C@@H]1CCc2c1nc1c(c2NC(=O)N=S(N)(=O)c2cc(F)c(C(C)(C)O)s2)CCC1 (single isomer, unassigned) [Compound 616a, (R) or (S)-4-Fluoro-5-(2-hydroxypropan-2-yl)-N′-(((R)-3-methyl-1,2,3,5,6,7-hexahydrodicyclopenta [b,e]pyridin-8-yl)carbamoyl) thiophene-2-sulfonimidamide]
IC50 [2]: 40 to 200 nM

SMILES: CC(C)c1c(C2CC2)nc2c(c1NC(=O)N=S(N)(=O)c1cc(C(C)(C)O)cs1)CCC2 (single isomer, unassigned) [Compound 667a, (S) or (R)-N′-((2-cyclopropyl-3-isopropyl-6,7-dihydro-5H-cyclopenta[b]pyridin-4-yl)carbamoyl)-4-(2-hydroxypropan-2-yl)thiophene-2-sulfonimidamide]
IC50 [2]: 5000 to 30000 nM

SMILES: CCc1nc2c(c(NC(=O)N=S(N)(=O)c3cnc(C(C)(C)O)s3)c1C1CC1)CCC2 (stereo not shown) [Compound 630, N′-((3-cyclopropyl-2-ethyl-6,7-dihydro-5H-cyclopenta[b]pyridin-4-yl)carbamoyl)-2-(2-hydroxypropan-2-yl)thiazole-5-sulfonimidamide]
IC50 [4]: 200 to 1000 nM

SMILES: CCc1nc2c(c(NC(=O)N=S(N)(=O)c3sc(C(C)(C)O)cc3F)c1C1CC1)CCC2 (stereo not shown) [Compound 631, N′-((3-cyclopropyl-2-ethyl-6,7-dihydro-5H-cyclopenta[b]pyridin-4-yl)carbamoyl)-3-fluoro-5-(2-hydroxypropan-2-yl)thiophene-2-sulfonimidamide]
IC50 [4]: 40 to 200 nM

SMILES: CC(C)c1ncc(F)c(C(C)C)c1NC(=O)N=S(N)(=O)c1nc(C(C)(C)O)cs1 (stereo not shown) [Compound 163, N′-((5-fluoro-2,4-diisopropylpyridin-3-yl)carbamoyl)-4-(2-hydroxypropan-2-yl)thiazole-2-sulfonimidamide]
IC50 [3]: 200 to 1000 nM

SMILES: CC(C)(O)c1nc(CCO)c(S(N)(=O)=NC(=O)Nc2c3c(nc4c2CCC4)CCC3)s1 (single isomer, unassigned) [Compound 118a, (R) or (S)-N′-((1,2,3,5,6,7-hexahydrodicyclo-penta[b,e]pyridin-8-yl)carbamoyl)-4-(2-hydroxyethyl)-2-(2-hydroxypropan-2-yl)thiazole-5-sulfonimidamide]
IC50 [3]: 200 to 1000 nM

SMILES: Cc1c(C(C)C)nc2c(c1NC(=O)N=S(N)(=O)c1ccn(C(C)C)n1)CCC2 (single isomer, unassigned) [Compound 644a, (S) or (R)-1-Isopropyl-N′-((2-isopropyl-3-methyl-6,7-dihydro-5H-cyclopenta[b]pyridin-4-yl)carbamoyl)-1H-pyrazole-3-sulfonimidamide]
IC50 (Homo sapiens, THP-1, Table B2, numeric bounds, read-out: hTHP-1 IC50): > 30000 nM

SMILES: CC(O)c1nc(C(C)(C)O)sc1S(=N)(=O)NC(=O)Nc1c2c(nc3c1CCC3)CCC2 (single isomer, unassigned) [Compound 643b, (S, R/S) or (R, R/S)-N-((1,2,3,5,6,7-hexahydrodicyclopenta [b,e]pyridin-8-yl)carbamoyl)-4-(1-hydroxyethyl)-2-(2-hydroxypropan-2-yl) thiazole-5-sulfonimidamide]
IC50 [2]: 5000 to 30000 nM

SMILES: Cc1c(CC2CC2)nc2c(c1NC(=O)N=S(N)(=O)c1cc(C(C)(C)O)cs1)CCC2 (stereo not shown) [Compound 655, N′-((2-(cyclopropylmethyl)-3-methyl-6,7-dihydro-5H-cyclopenta[b]pyridin-4-yl)carbamoyl)-4-(2-hydroxypropan-2-yl)thiophene-2-sulfonimidamide]
IC50 [4]: 5000 to 30000 nM

SMILES: Cc1c(C(F)(F)F)nc2c(c1NC(=O)N=S(N)(=O)c1cnc(C(C)(O)CO)s1)CCC2 (single isomer, unassigned) [Compound 605b, (R, R) and (S, R) or (R, S) and (S, S)-2-(l,2-Dihydroxypropan-2-yl)-N′-((3-methyl-2-(trifluoromethyl)-6,7-dihydro-5H-cyclopenta[b]pyridin-4-yl)carbamoyl) thiazole-5-sulfonimidamide]
IC50 [2]: 200 to 1000 nM

SMILES: CCn1ccc(S(N)(=O)=NC(=O)Nc2c3c(nc4c2CC[C@H]4C)CCC3)n1 (stereo partly drawn) [Compound 634, 1-Ethyl-N′-(((R)-3-methyl-1,2,3,5,6,7-hexahydrodicyclopenta[b,e]pyridin-8-yl)carbamoyl)-1H-pyrazole-3-sulfonimidamide]
IC50 [4]: 40 to 200 nM

SMILES: CC(C)(O)c1nc(S(N)(=O)=NC(=O)Nc2c3c(nc4c2CCC4)CCC3)cs1 (single isomer, unassigned) [Compound 154b, (S) or (R)-N′-((1,2,3,5,6,7-hexahydrodicyclo-penta[b,e]pyridin-8-yl)carbamoyl)-2-(2-hydroxypropan-2-yl)thiazole-4-sulfonimidamide]
IC50 (Homo sapiens, THP-1, Table B1, numeric bounds, read-out: Average IC50 of compounds in hTHP-1 assay: hTHP-1 IC50): > 28000 nM

Continued, values first:

IC50 [1]: 40 to 200 nM
SMILES: CCn1cc(F)c(S(N)(=O)=NC(=O)Nc2c3c(nc(C)c2-c2ccccc2)CCC3)n1 (stereo not shown) [Example 741, 1-Ethyl-4-fluoro-N′-((2-methyl-3-phenyl-6,7-dihydro-5H-cyclopenta[b]pyridin-4-yl)carbamoyl)-1H-pyrazole-3-sulfonimidamide]

IC50 [1]: 1000 to 5000 nM
SMILES: CCn1cc(F)c(S(N)(=O)=NC(=O)Nc2c(-c3ccccc3)cnc3c2CCC3)n1 (stereo not shown) [Example 745, 1-Ethyl-4-fluoro-N′-((3-phenyl-6,7-dihydro-5H-cyclopenta[b]pyridin-4-yl)carbamoyl)-1H-pyrazole-3-sulfonimidamide]

IC50 [5]: 5000 to 30000 nM
SMILES: CC(=O)c1csc(S(N)(=O)=NC(=O)Nc2c3c(nc4c2CC[C@H]4C)CCC3)c1 (single isomer, unassigned) [Example 666, (S) or (R)-4-acetyl-N′-(((R)-3-methyl-1,2,3,5,6,7-hexahydrodicyclopenta[b,e]pyridin-8-yl)carbamoyl)thiophene-2-sulfonimidamide]

IC50 [4]: 5000 to 30000 nM
SMILES: Cc1cc(C(C)(C)O)sc1S(N)(=O)=NC(=O)Nc1c2c(nc3c1CCC3)CCC2 (stereo not shown) [Compound 695, N-((1,2,3,5,6,7-hexahydrodicyclopenta[b,e]pyridin-8-yl)carbamoyl)-5-(2-hydroxypropan-2-yl)-3-methylthiophene-2-sulfonimidamide]

IC50 (Homo sapiens, THP-1, Table B3, hTHP-1 assay, numeric values, read-out: IC50): > 30000 nM
SMILES: CC(C)c1nc2c(cc1NC(=O)N=S(N)(=O)c1cnc(C(C)(C)O)s1)CCC2 (single isomer, unassigned) [Example 702, (S) or (R)-2-(2-Hydroxypropan-2-yl)-N′-((2-isopropyl-6,7-dihydro-5H-cyclopenta[b]pyridin-3-yl)carbamoyl)thiazole-5-sulfonimidamide]

IC50 [5]: 200 to 1000 nM
SMILES: NS(=O)(=NC(=O)Nc1c2c(nc3c1CCC31CC1)CCC2)c1ccn(CCO)n1 (single isomer, unassigned) [Example 647, (R) or (S)-1-(2-hydroxyethyl)-N′-((1′,5′,6′,7′-tetrahydro-2′H-spiro[cyclopropane-1,3′-dicyclopenta[b,e]pyridin]-8′-yl)carbamoyl)-1H-pyrazole-3-sulfonimidamide]

IC50 [5]: 40 to 200 nM
SMILES: Cc1nc2c(c(NC(=O)N=S(N)(=O)c3nn(C(F)F)cc3F)c1-c1ccccc1)CCC2 (single isomer, unassigned) [Example 727, (R) or (S)-1-(difluoromethyl)-4-fluoro-N′-((2-methyl-3-phenyl-6,7-dihydro-5H-cyclopenta[b]pyridin-4-yl)carbamoyl)-1H-pyrazole-3-sulfonimidamide]

IC50 (Homo sapiens, THP-1, Table B3, hTHP-1 assay, class symbols, read-out: IC50): 200 to 1000 nM
SMILES: C[C@@](O)(CO)c1cc(F)c(S(N)(=O)=NC(=O)Nc2c3c(nc4c2CCC42CC2)CCC3)s1 (stereo partly drawn) [Example 607, 5-((R)-1,2-dihydroxypropan-2-yl)-3-fluoro-N′-((1′,5′,6′,7′-tetrahydro-2′H-spiro[cyclopropane-1,3′-dicyclopenta[b,e]pyridin]-8′-yl)carbamoyl)thiophene-2-sulfonimidamide]

IC50 [2]: 5000 to 30000 nM
SMILES: CC(C)c1nc(CO)c(S(N)(=O)=NC(=O)Nc2c3c(nc4c2CCC4(C)C)CCC3)s1 (single isomer, unassigned) [Compound 680a, (S) or (R)-N′-((3,3-dimethyl-1,2,3,5,6,7-hexahydrodicyclopenta [b,e]pyridin-8-yl)carbamoyl)-4-(hydroxymethyl)-2-isopropylthiazole-5-sulfonimidamide]

IC50 (Table B4, class symbols, read-out: hTHP-1 IC50): 40 to 200 nM
SMILES: NS(=O)(=NC(=O)Nc1c2c(nc(C(F)(F)F)c1C1CC1)CCC2)c1nn(C(F)F)cc1F (single isomer, unassigned) [Example 775, (R) or (S)-N′-((3-cyclopropyl-2-(trifluoromethyl)-6,7-dihydro-5H-cyclopenta[b]pyridin-4-yl)carbamoyl)-1-(difluoromethyl)-4-fluoro-1H-pyrazole-3-sulfonimidamide]
